Patent publication US20250059193A1, “POLYMORPHIC AND SALT FORMS OF (1S,3S)-N1-(5-(PENTAN-3-YL)PYRAZOLO[1,5-A]PYRIMIDIN-7-YL) CYCLOPENTANE-1,3-DIAMINE” (Kronos Bio, Inc., priority 2021, published 2025)
Where a name gives a salt, the structure may show the parent alone.

Tests used:
Assay type in all cases: physicochemical
[1] = Accelerated aging conditions (AAC; 40° C./75% RH), solids reanalyzed by XRPD; details: solid form by XRPD
Method: Next, the resulting solids were combined with another solvent (acetonitrile (AcN) or ethanol) and the resulting mixtures were stirred at room temperature (RT). After stirring, the solids were isolated by centrifugation and part of the solids was harvested on a 96-well plate and dried under ambient conditions. The remaining part of the solids was dried under vacuum (5 mbar [i.e. 500 Pa], RT, 18 h). All solids were analyzed by XRPD, subjected to accelerated aging conditions (AAC; 40° C./75% RH) and reanalyzed by XRPD. The procedure and resulting tosylate forms are shown in the table below, wherein forms were identified by XRD.
Next, the resulting solids were combined with another solvent (acetonitrile (AcN) or chloroform) and the resulting mixtures were stirred at room temperature (RT). After stirring, the solids were isolated by centrifugation and part of the solids was harvested on a 96-well plate and dried under ambient conditions. The remaining part of the solids was dried under vacuum (5 mbar, RT, 18 h). All solids were analyzed by XRPD, subjected to AAC (accelerated aging conditions; 40° C./75% RH) and reanalyzed by XRPD.
Next, the resulting solids were combined with another solvent (AcN, diethyl ether, or toluene), and the resulting mixtures were stirred at room temperature (RT). After stirring, the solids were isolated by centrifugation and part of the solids was harvested on a 96-well plate and dried under ambient conditions. The remaining part of the solids was dried under vacuum (5 mbar, RT, 18 h). All solids were analyzed by XRPD, subjected to AAC (40° C./75% RH) and reanalyzed by XRPD.
Next, the resulting solids were combined with another solvent (1,4-dioxane, acetonitrile, ethyl acetate), and the resulting mixtures were stirred at room temperature (RT). After stirring, the solids were isolated by centrifugation and part of the solids was harvested on a 96-well plate and dried under ambient conditions. The remaining part of the solids was dried under vacuum (5 mbar, RT, 18 h). All solids were analyzed by XRPD, subjected to AAC (40° C./75% RH) and reanalyzed by XRPD.
Next, the resulting solids were combined with another solvent (acetonitrile or diethyl ether), and the resulting mixtures were stirred at room temperature (RT). After stirring, the solids were isolated by centrifugation and part of the solids was harvested on a 96-well plate and dried under ambient conditions. The remaining part of the solids was dried under vacuum (5 mbar, RT, 18 h). All solids were analyzed by XRPD, subjected to AAC (40° C./75% RH) and reanalyzed by XRPD.

[2] = pH of the solubility samples
Method: The pH was recorded with a Metrohm 913 PH meter, equipped with a WTW SenTix® MIC-B electrode.
(§1) FaSSGF is Fasted State Simulated Gastric Fluid. Solubility is reported in mg/mL.

[3] = Solubility of free base and salt forms; details: for solubility compared with the free base: physiological conditions, salt forms versus free base; for solubility at 24 h: thermodynamic from solid
Source text: as §1

[4] = Repeat XRD of amorphous free base from slow evaporation of ethanol solution; details: product of slow evaporation of ethanol solution of form I
Method: Initial attempts to generate an amorphous form of the free base were conducted by slow evaporation of a form I solution. In particular, form I was dissolved in ethanol according to the chart below and then allowed to slowly evaporate.

[5] = Medium 100 mM phosphate, pH Buffer 6.8

Row | SMILES | 3 days AAC (XRPD form) [1] | pH (30 min) [2, 5] | pH (2 h) [2, 5] | pH (24 h) [2, 5] | pH (30 min) ([2]; Medium FaSSGF, pH Buffer 1.6) | pH (2 h) ([2]; Medium FaSSGF, pH Buffer 1.6) | pH (24 h) ([2]; Medium FaSSGF, pH Buffer 1.6) | Solubility (2 h) [3, 5] | Solubility (24 h) [3, 5] | Solubility (2 h) ([3]; Medium FaSSGF, pH Buffer 1.6) | Solubility (24 h) ([3]; Medium FaSSGF, pH Buffer 1.6) | solubility compared with the free base [3] | also measured
1 | CCC(CC)c1cc(N[C@H]2CC[C@H](N)C2)n2nccc2n1 [Tosylate amorphous] | Form II | – | – | – | – | – | – | – | – | – | – | – | 5 days AAC (XRPD form) [1]: Form II
2 | CCC(CC)c1cc(N[C@H]2CC[C@H](N)C2)n2nccc2n1 [Oxalate II] | Form II | – | – | – | – | – | – | – | – | – | – | – | 5 days AAC (XRPD form) [1]: Form II
3 | CCC(CC)c1cc(N[C@H]2CC[C@H](N)C2)n2nccc2n1 [Fumarate IV] | Form III | – | – | – | – | – | – | – | – | – | – | – | –
4 | CCC(CC)c1cc(N[C@H]2CC[C@H](N)C2)n2nccc2n1 [Fumarate III] | – | 4.5 | 7.2 | 7.3 | 4.1 | 1.6 | 1.7 | >107 mg/mL | >107 mg/mL | >48 mg/mL | >48 mg/mL | increased | –
5 | CCC(CC)c1cc(N[C@H]2CC[C@H](N)C2)n2nccc2n1 [amorphous product] | – | – | – | – | – | – | – | – | – | – | – | – | XRD of amorphous product after about 45 minutes [4]: began crystalizing
6 | CCC(CC)c1cc(N[C@H]2CC[C@H](N)C2)n2nccc2n1 [Fumarate II] | Form III | – | – | – | – | – | – | – | – | – | – | – | –
7 | CCC(CC)c1cc(N[C@H]2CC[C@H](N)C2)n2nccc2n1 [Oxalate III] | – | 2.1 | 6.7 | 6.8 | 1.6 | 1.6 | 1.5 | 55.5 mg/mL | 38.1 mg/mL | >392 mg/mL | >392 mg/mL | increased | –
8 | CCC(CC)c1cc(N[C@H]2CC[C@H](N)C2)n2nccc2n1 [Citrate I] | – | 4.5 | 6.7 | 6.7 | 4.4 | 1.6 | 1.6 | >137 mg/mL | >137 mg/mL | >127 mg/mL | >127 mg/mL | increased | –
9 | CCC(CC)c1cc(N[C@H]2CC[C@H](N)C2)n2nccc2n1 [Free base I, (1S,3S)—N^1—(5-(pentan-3-yl)pyrazolo[1,5-α]pyrimidin-7-yl)cyclopentane-1,3-diamine] | – | – | – | – | – | – | – | – | – | – | – | – | pH (24 h) ([2]; Medium 50 mM phosphate, pH Buffer 1.6 as printed): 9.4; pH (24 h) ([2]; Medium FaSSGF, pH Buffer 7.4 as printed): 10.2; pH (24 h) ([2]; Medium Water): 10.1; solubility at 24 h ([3]; 50 mM phosphate buffer, pH 1.6, aqueous buffer, Medium 50 mM phosphate, pH Buffer 1.6 as printed): 9.8 mg/mL; solubility at 24 h ([3]; FaSSGF (Fasted State Simulated Gastric Fluid), pH 7.4, fassgf or other biorelevant, Medium FaSSGF, pH Buffer 7.4 as printed): 5.9 mg/mL; solubility ([3]; water): 5.9 mg/mL; solubility at 24 h ([3]; water, Medium Water): 5.1 mg/mL
10 | CCC(CC)c1cc(N[C@H]2CC[C@H](N)C2)n2nccc2n1 [Camsylate II] | Form II | 4.1 | 7.4 | 7.5 | 1.6 | 1.7 | 1.7 | 28.9 mg/mL | 42.2 mg/mL | >380 mg/mL | >380 mg/mL | increased | 5 days AAC (XRPD form) [1]: Form III
11 | CCC(CC)c1cc(N[C@H]2CC[C@H](N)C2)n2nccc2n1 [Tosylate III] | – | 2.7 | 6.8 | 7.0 | 1.0 | 1.9 | 2.1 | 8.7 mg/mL | 2.92 mg/mL | >129 mg/mL | >129 mg/mL | increased | –
12 | CCC(CC)c1cc(N[C@H]2CC[C@H](N)C2)n2nccc2n1 [fumarate salt] | Form III | – | – | – | – | – | – | – | – | – | – | – | –
